Assay results from patent US20260240817A1, “COMPOSITIONS AND METHODS FOR TREATING CHARCOT-MARIE-TOOTH DISEASE” (priority 2023, published 2026).
“Also recorded” adds a separate entry of the source.

Key:
[1] = test system: soleus muscle fibres from CMT2D mice; assay type: cell-based, mouse; details: 10 μM NMD670 added to CMT2D fibres, μ-Conotoxin-treated; vs before addition; 12, 30, 80 Hz trains
[2] = test system: CMT2D Gars^P278KY mice; assay: In situ force and CMAP of triceps surae on sciatic nerve stimulation, CMT2D model; assay type: in vivo, mouse
Experimental: CMT2D Gars^P278KY mice (Jackson laboratories, stock 17540) were used (Spauling et al. 2016). All handling and use of animals complied with Danish Animal Welfare regulations (licence 2017-15-0201-01223). Animals were fed ad libitum, kept at 12 h light/dark condition at 21° C. and observed daily.
Mice were removed from their housing on the day of experiment and sedated with isoflurane (2-3%) dissolved in oxygen (supplied in a mask placed around the mouth and nose (Microvent 1, Hallowell EMC)) and placed on a heated mat. Sedation was ensured by testing the reflexes of the front limbs by tweezing them with a set of tweezers. Temperature was monitored by rectal probe. When fully sedated the Achilles tendon was blotted, tied by cotton string to a force transducer (Grass instruments) and cut distal to the cotton string, to allow recording of force from muscle of the lower limb. To record compound muscle action potentials (CMAP), two small needle electrodes were placed subcutaneously, one over the belly of the triceps surae muscle, and one at the distal part close to the tendon. To allow stimulation of the sciatic nerve, two stimulation needle electrodes were inserted at the base of the tail, one on each side of the sciatic nerve. Optimal placement was tested by applying short pulses via the stimulation electrodes, and assessing the resulting force and CMAP. When a stable response was obtained, electrodes were secured with tape, and the animal was allowed to rest for 10 minutes.
The single fibre measurements of EPP was performed in animals aged 8 to 15 weeks, whilst the in situ stimulation protocol part was performed in animals 37 weeks of age, from the same litter.
After optimal set-up and rest, the following stimulation paradigm was initiated: Every 30 seconds the sciatic nerve was stimulated at 8-12 Volt by pulses of 0.1 ms duration at 12 Hz with 10 pulses (12 Hz protocol). This was repeated 9 times after which a single stimulation at 120 Hz for 1 s was made. The 12 Hz protocol was then again repeated 9 times followed a stimulation at 30 Hz for 1 s. This cycle was repeated throughout the experiments providing recordings of force and CMAP at 120 Hz and 30 Hz every 10th minute interspaced by 12 Hz protocols every 30 second. When 3 consecutive measurements of 120 Hz were similar, NMD670 was administered I.V. (8 mg/kg dissolved in phosphate buffered saline at 2 mg/mL), while the stimulation paradigm continued. Animals were monitored for 6 hours after injection of NMD670. Force and CMAP were measured and digitalized by an AD converter (CED, UK,) and analysed in “Signal 6” (Cambridge Electronic Designs, UK). When analysing force traces, the peak amplitude of each twitch peak at 12 and 30 Hz was measured, and the baseline subtracted. The force at 30 and 120 Hz was also quantified as a force-time integral, or area under the curve (AUC). The CMAP recordings were quantified as the peak-to-peak levels for each CMAP in every train. The peak heights or CMAP levels were then expressed as ratios relative to the first CMAP peak in the train e.g. forth peak relative to 1st peak (T4/T1) and 10th peak relative to 1st peak (T10/T1).

[3] = Tablet dissolution (USP2 paddles, pH 6.8); assay type: physicochemical; details: immediate release film-coated tablets; after a maximum of 60 minutes; USP2 paddles 75 RPM, 37° C., 900 ml pH 6.8
Experimental: Tablet dissolution was determined as follows. […] Dissolution Media pH 6.8 was prepared by dissolving 27.3g Na2HPO4·2H2O and 4.9 g Citric Acid in 1 L Milli-Q water. The pH was measured and adjusted if necessary to pH 6.8. 900 mL of dissolution media pH 6.8 was accurately transferred into each dissolution vessel. The apparatus was assembled, and the dissolution media was heated to 37° C.±0.5° C. The T=0 point was extracted from each vessel prior to dropping the tablets into the dissolution vessels. One tablet was gently dropped into each dissolution vessel, and rotation of the paddle was immediately started. Samples were taken that the sample extraction timepoints and analysed using the HPLC method.

[4] = test system: MG patients; assay: Phase 1 FIH study, single doses in MG patients; assay type: in vivo, human
Experimental: NMD670 has been tested in a Phase 1, FIH, single ascending and multiple ascending dose study in healthy volunteers. […] In addition, the Phase 1 FIH study also tested single doses of 400 mg and 1200 mg in 12 MG patients.

[5] = test system: mouse model of CMT1A; assay: Stimulated EMG (CMAP decrement) in mouse model of CMT1A; assay type: in vivo
Experimental: Male and female mice (Jacson Laboratory Strain #:030052) approx. 6-7 months of age at time of study start were used. These genetically modified mice are used as a disease model to study Charcot Marie Tooth (CMT) disease type 1A (CMT1A).
The sodium salt of NMD670 was dissolved in phosphate buffered saline (PBS) to a dose volume of 1 mg/mL. The entire amount of dose-solution was then transferred to a vial labelled A or B (for blinding purposes). The vehicle control solution was PBS and this was transferred to a vial labelled A or B (for blinding purposes). Compound was dosed IP at a volume of 10 mL/kg, from a 1 mg/mL dose solution.
NMD670 or vehicle was administered by IP injection at a volume of 10 mL/kg from a 1 mg/mL dose solution while sedated in the EMG measurement set up. 10 to 15 minutes was allowed to elapse before next step was initiated.
Each mouse was tested prior to intervention with test article, and then tested after IP injection of 10 mg/kg NMD670 or vehicle (PBS). A washout period was then allowed (48 hours), and the mouse was subjected to the same test, but receiving the opposite treatment to that on the first day. All mice thus received both vehicle and NMD670, in a randomized order (FIG. 6).

[6] = Gars^P278KY mice, after injection of NMD670
[7] = Gars^P278KY mice, after injection of NMD670, not fully normalized
[8] = Gars^P278KY, after 8 mg/kg i.v. (before 100)

C[C@H](Oc1ccc(Br)cc1-c1ccon1)C(=O)O [NMD670, (2S)-2-[4-bromo-2-(1,2-oxazol-3-yl)phenoxy]propanoic acid]
EPP amplitude [1]: significant increase; also recorded: small non-significant increase | force, CMAP and relative force peaks (T4 or T10/T1) ([2]; Gars^P278KY mice, after 8 mg/kg NMD670 i.v., 12, 30, 120 Hz stimulation): less decrease in amplitudes; also recorded: improved; also recorded: increase | T4/T1 and T10/T1 ratios of twitch force [2, 6]: normalization | increase in absolute twitch force [2, 6]: 25% | increase of force during 30 Hz stimulation [2, 7]: 21% | increase of force during 120 Hz stimulation [2, 7]: 30% | Twitch force ([2]; Gars^P278KY, after 8 mg/kg NMD670 i.v. (before 6.06 ± 0.8)): 7.5 ± 1.1 g | Twitch force relative to BW ([2]; Gars^P278KY, after 8 mg/kg i.v. (before 0.42 ± 0.05)): 0.51 ± 0.05 | 12 Hz Ratios CMAP T10/T1 ([2]; Gars^P278KY, after 8 mg/kg i.v. (before 63.5 ± 4.91)): 76.1 ± 4.37 | 12 Hz Ratios CMAP T4/T1 ([2]; Gars^P278KY, after 8 mg/kg i.v. (before 75.5 ± 2.8)): 86.3 ± 2.44 | Force 12 Hz Ratios T10/T1 ([2]; Gars^P278KY, after 8 mg/kg i.v. (before 82.0 ± 6.0)): 93.8 ± 5.7% | EMG (CMAP) 30 Hz 5/1 ([2]; Gars^P278KY, after 8 mg/kg i.v. (before 82.4 ± 3.3)): 95.3 ± 2.4 | EMG (CMAP) 120 Hz 5/1 ([2]; Gars^P278KY, after 8 mg/kg i.v. (before 83.8 ± 13.9)): 102.0 ± 4.3 | Force 12 Hz Ratios T4/T1 ([2]; Gars^P278KY, after 8 mg/kg i.v. (before 88.2 ± 5.1)): 97.8 ± 5.0% | Force 30 Hz AUC (% of initial) [2, 8]: 124.1 ± 3.7 % of initial | Force 120 Hz AUC (% of initial) [2, 8]: 136.7 ± 29.9 % of initial | NMD670 released from the tablets [3]: Not less than 80% | myotonia ([4]; patients with MG, single doses of 400 mg and 1200 mg): not observed | symptoms of MG ([4]; single dose of 400 mg): statistically significant and clinically relevant improvements of symptoms | CMAP decrement, NMD670 vs vehicle group after treatment ([5]; 10 mg/kg IP, n=8): not significantly different | recovery of CMAP decrement after intervention ([5]; 40 Hz, 10 mg/kg IP (sodium salt in PBS), vehicle 8.6): 15.2 % point
